Results as given in ChEMBL document CHEMBL3879915, “Methods of inhibiting PRMT5” (2014).

Assays:
PRMT5/MEP50 complex = PRMT5/MEP50 complex (Homo sapiens, UniProt O14744); assay: Inhibition of recombinant human fetal brain FLAG-tagged PRMT5/full length human testis 6His-tagged MEP50 expressed in baculovirus infected insect Sf9 cells using human histone H4 (1 to 15 residues) as substrate preincubated for 30 mins followed by [3H]-SAM addition
[1] = molecular target: Protein arginine N-methyltransferase 5 (Homo sapiens, UniProt O14744); assay: Inhibition of PRMT5 in human Z138 cells assessed as decrease in di-methyl arginine levels after 96 hrs by Western blot method; type: cell-based
Protein arginine N-methyltransferase 5, sequence (O14744 whole entry): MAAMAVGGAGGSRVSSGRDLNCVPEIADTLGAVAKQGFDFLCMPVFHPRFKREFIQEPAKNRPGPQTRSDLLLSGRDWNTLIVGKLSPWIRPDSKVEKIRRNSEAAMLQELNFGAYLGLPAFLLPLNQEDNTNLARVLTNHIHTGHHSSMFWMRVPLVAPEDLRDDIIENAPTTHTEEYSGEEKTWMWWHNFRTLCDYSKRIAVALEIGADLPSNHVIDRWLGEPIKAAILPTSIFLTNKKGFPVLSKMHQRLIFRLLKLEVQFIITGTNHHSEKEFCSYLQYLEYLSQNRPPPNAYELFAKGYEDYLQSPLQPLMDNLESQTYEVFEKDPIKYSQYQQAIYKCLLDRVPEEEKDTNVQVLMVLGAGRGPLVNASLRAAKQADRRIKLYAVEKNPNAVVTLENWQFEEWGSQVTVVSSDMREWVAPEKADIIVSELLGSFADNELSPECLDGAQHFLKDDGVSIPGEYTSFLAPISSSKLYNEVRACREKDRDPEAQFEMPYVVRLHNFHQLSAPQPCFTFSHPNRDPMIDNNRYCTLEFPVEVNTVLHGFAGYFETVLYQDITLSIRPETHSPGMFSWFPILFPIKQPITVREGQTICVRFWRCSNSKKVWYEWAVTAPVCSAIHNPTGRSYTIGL

[2] = Antiproliferative activity against human Z138 cells assessed as inhibition of cell viability after 5 days by Cell-Titer Glo assay; type: functional, cell-based; settings: Z-138, 120 h

PRMT5/MEP50 complex, sequence (O14744 whole entry, the tested form may be a part): as the sequence (O14744 whole entry) above
PRMT5/MEP50 complex, sequence (Q9BQA1 whole entry, further chain, the tested form may be a part): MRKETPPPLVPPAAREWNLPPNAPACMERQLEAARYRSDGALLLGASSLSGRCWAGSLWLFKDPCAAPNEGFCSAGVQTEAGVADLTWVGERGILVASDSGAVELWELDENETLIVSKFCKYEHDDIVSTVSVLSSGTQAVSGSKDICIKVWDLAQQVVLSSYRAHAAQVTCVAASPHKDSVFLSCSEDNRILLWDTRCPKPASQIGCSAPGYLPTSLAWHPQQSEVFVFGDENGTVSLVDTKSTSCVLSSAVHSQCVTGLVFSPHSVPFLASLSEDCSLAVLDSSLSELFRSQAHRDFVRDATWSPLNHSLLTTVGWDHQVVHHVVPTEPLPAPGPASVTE

Row | Structure (SMILES) | IC50 (PRMT5/MEP50 complex) [nM] | EC50 [1] [nM] | EC50 [2] [nM]
1 | O=C(NCC(O)CN1CCc2ccccc2C1)c1ccc(-c2ccccn2)cc1 (stereo not given) | < 100 | < 100 | 101 to 1000
2 | CN1CCN(Cc2cccc(C(=O)NCC(O)CN3CCc4ccccc4C3)c2)CC1 (stereo not given) | < 100 | 101 to 1000 | 1000 to 10000
3 | O=C(NCC(O)CN1CCc2ccccc2C1)c1cccc(C2CCNC2)c1 (stereo not given) | < 100 | 101 to 1000 | > 20000
4 | O=C(NCC(O)CN1CCc2ccccc2C1)c1cccc(-c2ccncc2)c1 (stereo not given) | < 100 | < 100 | 1000 to 10000
5 | O=C1CN(c2cccc3cccnc23)CCN1CC(O)CN1CCc2ccccc2C1 (stereo not given) | < 100 | 101 to 1000 | 1000 to 10000
6 | O=C1COc2ccccc2N1CC(O)CN1CCc2ccccc2C1 (stereo not given) | 101 to 1000 | 101 to 1000 | > 20000
7 | CS(=O)(=O)Nc1ccc(C(=O)NCC(O)CN2CCc3ccccc3C2)cc1 (stereo not given) | 101 to 1000 | 101 to 1000 | 10000 to 50000
8 | O=C(NCC(O)CN1CCc2ccccc2C1)c1cccc(-c2cccnc2)c1 (stereo not given) | < 100 | < 100 | 1000 to 10000
9 | O=C(NCC(O)CN1CCc2ccccc2C1)c1cccc(CN2CCNCC2)c1 (stereo not given) | < 100 | 101 to 1000 | 1000 to 10000
10 | CN(c1cccc(OCC(=O)NCC(O)CN2CCc3ccccc3C2)c1)S(C)(=O)=O (stereo not given) | 101 to 1000 | 101 to 1000 | > 20000
11 | CNCCOc1cccc(C(=O)NCC(O)CN2CCc3ccccc3C2)c1 (stereo not given) | 101 to 1000 | 1000 to 10000 | > 20000
12 | O=C1CN(c2ccccc2Cl)CCN1CC(O)CN1CCc2ccccc2C1 (stereo not given) | 101 to 1000 | 101 to 1000 | 10000 to 50000
13 | O=C(NCC(O)CN1CCc2ccccc2C1)c1cccnc1 (stereo not given) | 101 to 1000 | 101 to 1000 | 10000 to 50000
14 | O=C1CN(c2cncc(N3CCOCC3)c2)CCN1CC(O)CN1CCc2ccccc2C1 (stereo not given) | < 100 | 101 to 1000 | 1000 to 10000
15 | CC(=O)Nc1ccc(C(=O)NCC(O)CN2CCc3ccccc3C2)cc1 (stereo not given) | 101 to 1000 | 101 to 1000 | > 20000
16 | NC(=O)c1ccc(C(=O)NCC(O)CN2CCc3ccccc3C2)cc1 (stereo not given) | 101 to 1000 | 101 to 1000 | > 20000
17 | CN(C)c1ccccc1N1CCN(C[C@H](O)CN2CCc3ccccc3C2)C(=O)C1 | 101 to 1000 | 101 to 1000 | 10000 to 50000
18 | O=C(NC[C@H](O)CN1CCc2ccccc2C1)Nc1ccccc1 | 101 to 1000 | 101 to 1000 | > 20000
19 | O=C1Cc2ccccc2N1CC(O)CN1CCc2ccccc2C1 (stereo not given) | 101 to 1000 | 101 to 1000 | > 20000
20 | O=C(NC[C@@H](O)CN1CCc2ccccc2C1)c1cccc(-c2ccccn2)c1 | < 100 | 101 to 1000 | 10000 to 50000
21 | Cc1ccc(N2CCN(CC(O)CN3CCc4ccccc4C3)C(=O)C2)cc1 (stereo not given) | 101 to 1000 | 101 to 1000 | > 20000
22 | CC(=O)Nc1cccc(C(=O)NCC(O)CN2CCc3ccccc3C2)c1 (stereo not given) | 101 to 1000 | 101 to 1000 | 10000 to 50000
23 | O=C(NCC(O)CN1CCc2ccccc2C1)c1cccc(-c2ccccn2)c1 (stereo not given) | < 100 | < 100 | 1000 to 10000
24 | CN1CCN(c2cccc(C(=O)NCC(O)CN3CCc4ccccc4C3)c2)CC1 (stereo not given) | < 100 | 101 to 1000 | 10000 to 50000
25 | OC(CNc1cccc(CNC2CCCC2)c1)CN1CCc2ccccc2C1 (stereo not given) | 101 to 1000 | 1000 to 10000 | > 20000
26 | O=C(NCC(O)CN1CCc2ccccc2C1)c1cccc(N2CCOCC2)c1 (stereo not given) | < 100 | 101 to 1000 | 1000 to 10000
27 | O=C(NCC(O)CN1CCc2ccccc2C1)c1cccc(CNC2CCOCC2)c1 (stereo not given) | < 100 | 101 to 1000 | 10000 to 50000
28 | O=C1CN(c2cccc(F)c2)CCN1CC(O)CN1CCc2ccccc2C1 (stereo not given) | < 100 | 101 to 1000 | > 20000

Row | Structure (SMILES) | IC50 (PRMT5/MEP50 complex) [nM] | EC50 [1] [nM] | EC50 [2] [nM]
29 | O=C(NCC(O)CN1CCc2ccccc2C1)c1cccc(-c2cc[nH]n2)c1 (stereo not given) | < 100 | 101 to 1000 | 1000 to 10000
30 | CN1CCC(c2cccc(C(=O)NCC(O)CN3CCc4ccccc4C3)c2)C1 (stereo not given) | < 100 | 101 to 1000 | 10000 to 50000
31 | COC(COc1cccc(CNC2CCCC2)c1)CN1CCc2ccccc2C1 (stereo not given) | 1000 to 10000 | > 20000 | > 40000
32 | NS(=O)(=O)c1cccc(C(=O)NCC(O)CN2CCc3ccccc3C2)c1 (stereo not given) | 101 to 1000 | 101 to 1000 | > 20000
33 | CCN(c1cccc(C(=O)NCC(O)CN2CCc3ccccc3C2)c1C)C1CCOCC1 (stereo not given) | < 100 | < 100 | 1000 to 10000
34 | Cc1c(NC2CCOCC2)cccc1C(=O)NCC(O)CN1CCc2ccccc2C1 (stereo not given) | < 100 | < 100 | 1000 to 10000
35 | O=C1CN(c2ccc(Cl)cc2)CCN1CC(O)CN1CCc2ccccc2C1 (stereo not given) | < 100 | 101 to 1000 | 10000 to 50000
36 | NS(=O)(=O)c1ccc(C(=O)NCC(O)CN2CCc3ccccc3C2)cc1 (stereo not given) | 101 to 1000 | 101 to 1000 | > 20000
37 | Cn1nccc1-c1cccc(C(=O)NCC(O)CN2CCc3ccccc3C2)c1 (stereo not given) | < 100 | < 100 | 1000 to 10000
38 | O=C(NC[C@H](O)CN1CCc2ccccc2C1)c1cccc(-c2ccccn2)c1 | < 100 | < 100 | 101 to 1000
39 | OC(COc1cccc(-c2ccccc2)c1)CN1CCc2ccccc2C1 (stereo not given) | 101 to 1000 | 1000 to 10000 | > 20000
40 | CN1CCC(c2ccccc2OCC(=O)NCC(O)CN2CCc3ccccc3C2)CC1 (stereo not given) | 101 to 1000 | 1000 to 10000 | > 20000
41 | O=C(COc1ccccc1-c1ncc[nH]1)NCC(O)CN1CCc2ccccc2C1 (stereo not given) | 101 to 1000 | 1000 to 10000 | > 20000
42 | O=C(NCC(O)CN1CCc2ccccc2C1)c1cccc(NC2CCOCC2)c1 (stereo not given) | < 100 | < 100 | 101 to 1000
43 | CN1CCCC1c1cccc(C(=O)NCC(O)CN2CCc3ccccc3C2)c1 (stereo not given) | < 100 | 101 to 1000 | 10000 to 50000
44 | O=C(NCC(O)CN1CCc2ccccc2C1)c1ccccn1 (stereo not given) | 101 to 1000 | 101 to 1000 | > 20000
45 | O=C(NCC(O)CN1CCc2ccccc2C1)c1cccc(N2CCNCC2)c1 (stereo not given) | < 100 | 101 to 1000 | 10000 to 50000
46 | CN(C)CCOc1cccc(C(=O)NCC(O)CN2CCc3ccccc3C2)c1 (stereo not given) | < 100 | 101 to 1000 | 10000 to 50000
47 | O=c1cc(Nc2ccccc2)ccn1C[C@@H](O)CN1CCc2ccccc2C1 | 101 to 1000 | 101 to 1000 | > 20000
48 | O=C1CN(c2cccc(N3CCOCC3)c2)CCN1CC(O)CN1CCc2ccccc2C1 (stereo not given) | < 100 | < 100 | 1000 to 10000
49 | O=C(NC[C@H](O)CN1CCc2ccccc2C1)c1ccccc1 | < 100 | < 100 | 1000 to 10000
50 | NC(=O)c1cccc(C(=O)NCC(O)CN2CCc3ccccc3C2)c1 (stereo not given) | 101 to 1000 | 1000 to 10000 | > 20000
51 | O=C(NC[C@@H](O)CN1CCc2ccccc2C1)c1cccc(NC2CCOCC2)c1 | 101 to 1000 | 101 to 1000 | 1000 to 10000
52 | CS(=O)(=O)Nc1cccc(C(=O)NCC(O)CN2CCc3ccccc3C2)c1 (stereo not given) | < 100 | 101 to 1000 | 1000 to 10000
53 | O=C(NCC(O)CN1CCc2ccccc2C1)c1cccc(C2CCCN2)c1 (stereo not given) | 101 to 1000 | 1000 to 10000 | > 20000
54 | O=C(c1ccc(Cn2nccc2-c2ccc(OCC(O)CN3CCc4ccccc4C3)cc2)cc1)N1CCCC1 (stereo not given) | 101 to 1000 | 1000 to 10000 | 10000 to 40000
55 | O=C(NCC(O)CN1CCc2ccccc2C1)c1ccccc1-c1ccccn1 (stereo not given) | 101 to 1000 | 1000 to 10000 | > 20000
